Results: publication PMC9410764, “EmCyclinD-EmCDK4/6 complex is involved in the host EGF-mediated proliferation of Echinococcus multilocularis germinative cells via the EGFR-ERK pathway” (Frontiers in Microbiology, 2022)

Molecular target: T1, EmCyclinD-EmCDK4/6 complex (Echinococcus multilocularis, UniProt A0A068YJR9)
T1 construct: gene EmuJ_001021000
T1 sequence (A0A068YJR9 1-711): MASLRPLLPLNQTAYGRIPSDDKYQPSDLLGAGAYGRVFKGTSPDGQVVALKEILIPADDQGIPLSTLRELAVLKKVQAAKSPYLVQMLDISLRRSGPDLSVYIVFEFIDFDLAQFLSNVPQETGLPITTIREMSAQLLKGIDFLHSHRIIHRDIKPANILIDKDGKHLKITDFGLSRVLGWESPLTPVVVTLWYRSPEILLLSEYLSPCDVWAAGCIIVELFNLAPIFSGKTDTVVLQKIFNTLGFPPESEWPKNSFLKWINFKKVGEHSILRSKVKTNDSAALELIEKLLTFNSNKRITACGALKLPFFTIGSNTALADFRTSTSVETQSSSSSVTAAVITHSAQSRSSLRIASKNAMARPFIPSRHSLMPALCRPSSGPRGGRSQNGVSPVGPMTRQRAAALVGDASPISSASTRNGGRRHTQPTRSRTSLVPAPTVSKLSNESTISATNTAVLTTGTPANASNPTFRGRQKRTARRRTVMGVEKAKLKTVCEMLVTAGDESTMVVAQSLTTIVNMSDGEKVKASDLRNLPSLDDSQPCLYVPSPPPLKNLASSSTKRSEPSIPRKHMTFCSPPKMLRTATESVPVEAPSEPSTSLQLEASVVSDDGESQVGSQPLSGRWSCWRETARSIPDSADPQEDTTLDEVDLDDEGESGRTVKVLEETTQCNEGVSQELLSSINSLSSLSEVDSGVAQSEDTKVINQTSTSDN
T1 sequence (A0A068Y4X2 1-386 partner): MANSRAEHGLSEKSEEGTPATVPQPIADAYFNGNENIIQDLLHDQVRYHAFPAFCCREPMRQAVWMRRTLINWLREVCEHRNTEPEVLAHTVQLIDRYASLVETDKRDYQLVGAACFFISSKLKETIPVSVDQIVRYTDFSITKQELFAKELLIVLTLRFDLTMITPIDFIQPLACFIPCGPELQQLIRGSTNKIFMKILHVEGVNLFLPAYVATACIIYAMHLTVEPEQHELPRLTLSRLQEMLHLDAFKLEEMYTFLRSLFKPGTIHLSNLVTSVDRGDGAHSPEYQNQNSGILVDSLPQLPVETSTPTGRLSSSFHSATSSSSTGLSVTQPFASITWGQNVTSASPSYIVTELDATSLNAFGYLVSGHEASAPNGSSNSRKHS
Conditions: human Rb1 substrate (3 ug); 25 uM ATP, 20 mM MgCl2, 1 mM DTT, pH 7.5, RT, 20 min

`Nc1ncnc2c1ncn2[C@@H]1O[C@H](COP(=O)(O)OP(=O)(O)OP(=O)(O)O)[C@@H](O)[C@H]1O` [ATP] was tested, and the kinase activity was “the EmCDK4/6-EmCyclinD complex displayed kinase activity against human Rb1”.
